pIC50: −log10 of the molar value. Converted amounts (≈) assume the structure as drawn.
How the values were obtained:
Cytotoxicity, MTT method = test: Cytotoxicity, MTT method
Experimental: (§1) Compounds were tested for their antimicrobial activity against […] fungi (Candida albicans, Mucor hiemails, Pichia anomala, Rhodotorula glutinis and Schizosaccharomyces pombe), four different Gram-positive bacteria (Bacillus subtilis, Micrococcus luteus, Mycobacterium smegmatis and Staphylococcus aureus), and three Gram-negative bacteria (Chromobacterium violaceum, Escherichia coli and Pseudomonas aeruginosa), using oxytetracycline as a positive control against Gram-positive and Gram-negative bacteria, while nystatin was used as an antifungal positive control. Besides, cytotoxicities of the compounds against seven mammalian cell lines (human endocervical adenocarcinoma KB 3.1, breast cancer MCF-7, lung cancer A549, ovary cancer SK-OV-3, prostate cancer PC-3, squamous cancer A431, and mouse fibroblasts L929) were determined by the microculture tetrazolium test (MTT) method, using epothilon B as the positive control. Both bioactivity assays were performed following our standard protocols.

Mycobacterium smegmatis = test: MIC, antibacterial test; assay type: cell-based; set-up: key: –: no inhibition observed under test conditions
Experimental: as §1

Bacillus subtilis = test: MIC, antibacterial test; assay type: cell-based; details: read-out: Minimum inhibitory concentration (MIC)
Experimental: as §1

Micrococcus luteus = test: MIC, antibacterial test; assay type: cell-based; details: read-out: Minimum inhibitory concentration (MIC)
Experimental: as §1

Staphylococcus aureus = test: MIC, antibacterial test; assay type: cell-based; details: read-out: Minimum inhibitory concentration (MIC)
Experimental: as §1

[1] = system: KB 3.1, L929, A549, SK-OV-3, PC-3, A431, and MCF-7 mammalian cell lines; test: Cytotoxicity, summary over all tested cell lines; assay type: cell-based; details: seven mammalian cell lines; read-out: IC50 values, range over all tested cell lines
Experimental: as §1

Escherichia coli = test: MIC, antibacterial test; assay type: cell-based; set-up: key to Minimum inhibitory concentration (MIC): –: no inhibition observed under test conditions
Experimental: as §1

Pseudomonas aeruginosa = test: MIC, antibacterial test; assay type: cell-based; set-up: key to Minimum inhibitory concentration (MIC): –: no inhibition observed under test conditions
Experimental: as §1

[2] = system: Chromobacterium violaceum; test: MIC, antibacterial test; assay type: cell-based; set-up: key to Minimum inhibitory concentration (MIC): –: no inhibition observed under test conditions
Experimental: as §1

Rhodotorula glutinis = test: MIC, antifungal test; assay type: cell-based; set-up: key to Minimum inhibitory concentration (MIC): –: no inhibition observed under test conditions; details: for MIC: read-out: Minimum inhibitory concentration (MIC)
Experimental: as §1

[3] = system: Schizosaccharomyces pombe; test: MIC, antifungal test; assay type: cell-based; set-up: key to Minimum inhibitory concentration (MIC): –: no inhibition observed under test conditions
Experimental: as §1

Pichia anomala = test: MIC, antifungal test; assay type: cell-based; set-up: key to Minimum inhibitory concentration (MIC): –: no inhibition observed under test conditions
Experimental: as §1

Mucor hiemalis = test: MIC, antifungal test; assay type: cell-based; set-up: key to Minimum inhibitory concentration (MIC): –: no inhibition observed under test conditions; details: for MIC: read-out: Minimum inhibitory concentration (MIC)
Experimental: as §1

Candida albicans = test: MIC, antifungal test; assay type: cell-based; set-up: key to Minimum inhibitory concentration (MIC): –: no inhibition observed under test conditions
Experimental: as §1

[4] = system: Co. truncatum and Cu. lunata; set-up: method as in PMID 29677644; details: cited from earlier work
NCI-H187 and Vero = system: NCI-H187 and Vero; set-up: method as in PMID 29677644; details: cited from earlier work
[5] = system: Al. brassicicola, Co. gloeosporioides, Co. truncatum, Cu. lunata and Py. grisea; set-up: method as in PMID 29677644; details: cited from earlier work
[6] = human, A431 squamous cancer cells
[7] = human, KB 3.1 endocervical adenocarcinoma cells
[8] = human, MCF-7 breast cancer cells
[9] = human, PC-3 prostate cancer cells
[10] = human, SK-OV-3 ovary cancer cells
[11] = read-out: Minimum inhibitory concentration (MIC)

Row | Compound | Minimum inhibitory concentration (MIC) (Mycobacterium smegmatis) | MIC (Bacillus subtilis) | MIC (Micrococcus luteus) | MIC (Staphylococcus aureus) | pIC50 [1] | Minimum inhibitory concentration (MIC) (Escherichia coli) | Minimum inhibitory concentration (MIC) (Pseudomonas aeruginosa) | Minimum inhibitory concentration (MIC) [2] | Minimum inhibitory concentration (MIC) (Rhodotorula glutinis) | Minimum inhibitory concentration (MIC) [3] | Minimum inhibitory concentration (MIC) (Pichia anomala) | MIC (Mucor hiemalis) | Minimum inhibitory concentration (MIC) (Candida albicans) | further results
1 | CCCC(=O)O[C@H]1c2cc(C)cc(O)c2C(=O)C2=C(O)[C@H]3C=C[C@]21Cc1cc2c(c(O)c13)C(=O)C1=C(O)CC[C@H](O)[C@@]1(C(=O)OC)O2 [Compound 1, Xanthoquinodin A11] | – | 0.4 µg/mL (≈ 0.621 µM) | 4.2 µg/mL (≈ 6.52 µM) | 2.1 µg/mL (≈ 3.26 µM) | 5.84 to 7.52 | – | – | – | – | – | – | 66.7 µg/mL (≈ 103 µM) | – | pIC50 (Cytotoxicity, MTT method; mouse): 5.95
2 | CCCC(=O)O[C@H]1c2cc(C)cc(O)c2C(=O)C2=C(O)[C@H]3C=C[C@]21Cc1cc(O)c2c(c13)O[C@@]1(C(=O)OC)C(=C(O)CC[C@@H]1O)C2=O [Compound 2, Xanthoquinodin B10] | – | 0.4 µg/mL (≈ 0.621 µM) | 2.1 µg/mL (≈ 3.26 µM) | 2.1 µg/mL (≈ 3.26 µM) | 5.84 to 7.52 | – | – | – | – | – | – |  | – | pIC50 (Cytotoxicity, MTT method; [6]): 7.22; pIC50 (Cytotoxicity, MTT method; human, A549 lung cancer cells): 6.40; pIC50 (Cytotoxicity, MTT method; [7]): 6.72; pIC50 (Cytotoxicity, MTT method; [8]): 7.40; pIC50 (Cytotoxicity, MTT method; [9]): 5.97; pIC50 (Cytotoxicity, MTT method; [10]): 6.89; pIC50 (Cytotoxicity, MTT method; mouse, L929 fibroblasts): 5.84; Minimum inhibitory concentration (MIC) (Mucor hiemalis): –
3 | CCCC(=O)O[C@H]1c2cc(C)cc(O)c2C(=O)C2=C(O)[C@H]3C=C[C@]21Cc1cc(O)c2c(c13)O[C@]1(C(=O)OC)C(=C(O)CC[C@@H]1O)C2=O [Compound 3, Xanthoquinodin B11] | – | 0.2 µg/mL (≈ 0.31 µM) | 2.1 µg/mL (≈ 3.26 µM) | 1 µg/mL (≈ 1.55 µM) | 5.84 to 7.52 | – | – | – | 2.10 µg/mL (≈ 3.26 µM) |  | 8.30 µg/mL (≈ 12.9 µM) | 2.1 µg/mL (≈ 3.26 µM) |  | pIC50 (Cytotoxicity, MTT method; [6]): 7.30; pIC50 (Cytotoxicity, MTT method; human, A549 lung cancer cells): 6.59; pIC50 (Cytotoxicity, MTT method; [7]): 6.82; pIC50 (Cytotoxicity, MTT method; [8]): 7.40; pIC50 (Cytotoxicity, MTT method; [9]): 6.19; pIC50 (Cytotoxicity, MTT method; [10]): 6.82; pIC50 (Cytotoxicity, MTT method; mouse, L929 fibroblasts): 6.01; MIC (Rhodotorula glutinis): 2.1 µg/mL (≈ 3.26 µM); MIC [3, 11]: 66.7 µg/mL (≈ 103 µM); MIC (Pichia anomala; Hansenula anomala, read-out: Minimum inhibitory concentration (MIC)): 8.3 µg/mL (≈ 12.9 µM); Minimum inhibitory concentration (MIC) (Mucor hiemalis): 2.10 µg/mL (≈ 3.26 µM); MIC (Candida albicans; [11]): 16.7 µg/mL (≈ 25.9 µM)
4 | CCCC(=O)O[C@H]1c2cc(C)cc(O)c2C(=O)C2=C(O)[C@H]3C=C[C@]21Cc1cc(O)c2c(c13)O[C@@]1(C(=O)OC)C(=C(O)[C@@H](O)C[C@@H]1O)C2=O [Compound 4, Xanthoquinodin B12] | – | 0.8 µg/mL (≈ 1.21 µM) | 2.1 µg/mL (≈ 3.18 µM) | 2.1 µg/mL (≈ 3.18 µM) | 4.73 to 5.99 | – | – | – |  | – | – | 66.7 µg/mL (≈ 101 µM) | – | pIC50 (Cytotoxicity, MTT method; mouse): 4.87; MIC (Rhodotorula glutinis): 66.7 µg/mL (≈ 101 µM)
5 | COC(=O)[C@]12Oc3c(c(O)cc4c3[C@@H]3C=C[C@]5(C4)C(=C3O)C(=O)c3c(O)cc(C)cc3[C@@H]5OC(C)=O)C(=O)C1=C(O)CC[C@@H]2O [Compound 5, Xanthoquinodin B13] | – | 0.2 µg/mL (≈ 0.324 µM) | 2.1 µg/mL (≈ 3.41 µM) | 8.3 µg/mL (≈ 13.5 µM) | 5.84 to 7.52 | – | – | – | – | – | – | 66.7 µg/mL (≈ 108 µM) | – | pIC50 (Cytotoxicity, MTT method; mouse): 5.95
6 | CCCC(=O)O[C@H]1c2cc(C)cc(O)c2C(=O)C2=C(O)[C@H]3C=C[C@]21Cc1cc(O)c2c(c13)O[C@@](C(=O)OC)([C@@H]1CCC(=O)O1)CC2=O [Compound 6, Xanthoquinodin B14] | – | 4.2 µg/mL (≈ 6.52 µM) | 8.3 µg/mL (≈ 12.9 µM) | 4.2 µg/mL (≈ 6.52 µM) | 4.73 to 5.99 | – | – | – | – | – | – | 66.7 µg/mL (≈ 103 µM) | – | pIC50 (Cytotoxicity, MTT method; [6]): 5.51; pIC50 (Cytotoxicity, MTT method; human, A549 lung cancer cells): 4.73; pIC50 (Cytotoxicity, MTT method; [7]): 5.47; pIC50 (Cytotoxicity, MTT method; [8]): 5.96; pIC50 (Cytotoxicity, MTT method; [9]): 5.27; pIC50 (Cytotoxicity, MTT method; [10]): 5.41; pIC50 (Cytotoxicity, MTT method; mouse, L929 fibroblasts): 4.98
7 | CCCC(=O)O[C@H]1c2cc(C)cc(O)c2C(=O)C2=C(O)[C@H]3C=C[C@]21Cc1cc(O)c2c(c13)O[C@@](C(=O)OC)([C@@H](O)CCC(=O)O)CC2=O [Compound 7, Xanthoquinodin B15] | – | 4.2 µg/mL (≈ 6.34 µM) | 4.2 µg/mL (≈ 6.34 µM) | 8.3 µg/mL (≈ 12.5 µM) | 4.73 to 5.99 | – | – | – | – | – | – | 66.7 µg/mL (≈ 101 µM) | – | pIC50 (Cytotoxicity, MTT method; [6]): 5.54; pIC50 (Cytotoxicity, MTT method; human, A549 lung cancer cells): 4.94; pIC50 (Cytotoxicity, MTT method; [7]): 5.46; pIC50 (Cytotoxicity, MTT method; [8]): 5.99; pIC50 (Cytotoxicity, MTT method; [9]): 5.30; pIC50 (Cytotoxicity, MTT method; [10]): 5.41; pIC50 (Cytotoxicity, MTT method; mouse, L929 fibroblasts): 5.00
8 | CNC(C)C1CCC(N)C(OC2C(N)CC(N)C(OC3OCC(C)(O)C(NC)C3O)C2O)O1 (stereo not shown) [gentamicin, reference compound] |  |  |  |  |  |  |  |  |  |  |  |  |  | MIC (Pseudomonas aeruginosa; [11]): 0.4 µg/mL (≈ 0.838 µM)
9 | NC[C@H]1O[C@H](O[C@H]2[C@H](O)[C@@H](O[C@H]3O[C@H](CO)[C@@H](O)[C@H](N)[C@H]3O)[C@H](N)C[C@@H]2N)[C@H](O)[C@@H](O)[C@@H]1O [kanamycin, reference compound] | 1.70 ^3 µg/mL |  |  |  |  |  |  |  |  |  |  |  |  | 
10 | C[C@@H]1[C@H](O)[C@@H](C)/C=C/C=C/CC/C=C/C=C/C=C/C=C/C(O[C@H]2O[C@H](C)[C@@H](O)[C@H](N)[C@@H]2O)CC2O[C@](O)(CC(O)C(O)CCC(O)CC(O)CC(O)CC(=O)O[C@H]1C)CC(O)C2C(=O)O (stereo partly shown) [nystatin, reference compound] |  |  |  |  |  |  |  |  | 16.70 ^1 µg/mL | 33.30 ^1 µg/mL | 33.30 ^1 µg/mL |  | 33.30 ^1 µg/mL | Minimum inhibitory concentration (MIC) (Mucor hiemalis): 33.30 ^1 µg/mL
11 | CN(C)[C@@H]1C(O)=C(C(N)=O)C(=O)[C@@]2(O)C(O)=C3C(=O)c4c(O)cccc4[C@@](C)(O)[C@H]3[C@H](O)[C@@H]12 [oxytetracycline, reference compound] |  | 8.3 µg/mL (≈ 18 µM) | 0.8 µg/mL (≈ 1.74 µM) | 0.4 µg/mL (≈ 0.869 µM) |  |  |  |  |  |  |  |  |  | MIC (Escherichia coli; [11]): 3.3 µg/mL (≈ 7.17 µM); MIC [2, 11]: 0.8 µg/mL (≈ 1.74 µM)
12 | COC(=O)[C@]12Oc3cc4c(c(O)c3C(=O)C1=C(O)CC[C@@H]2O)[C@@H]1C=C[C@]2(C4)C(=C(O)c3c(O)cc(C)cc3[C@@H]2O)C1=O [xanthoquinodin A6] |  |  |  |  |  |  |  |  |  |  |  |  |  | Antifungal effects (in words) [4]: significant antifungal effects; Cytotoxicity compared with other xanthoquinodins (in words) (NCI-H187 and Vero): stronger cytotoxicity
13 | COC(=O)[C@@]12Oc3c(c(O)cc4c3[C@@H]3C=C[C@]5(C4)C(=C(O)c4c(O)cc(C)cc4[C@@H]5O)C3=O)C(=O)C1=C(O)CC[C@@H]2O [xanthoquinodin B5] |  |  |  |  |  |  |  |  |  |  |  |  |  | Antifungal effects (in words) [5]: significant antifungal effects; Cytotoxicity compared with other xanthoquinodins (in words) (NCI-H187 and Vero): stronger cytotoxicity
14 | ketoxanthoquinodin A6 |  |  |  |  |  |  |  |  |  |  |  |  |  | Antifungal effects (in words) [4]: significant antifungal effects

— PMC7712541, “Seven New Cytotoxic and Antimicrobial Xanthoquinodins from Jugulospora vestita” (Journal of Fungi, 2020)
